Here are results for 17 molecules from patent EP1200406B1, “CYCLIC AMIDES AND IMIDES HAVING SELECTIVE ANTAGONIST ACTIVITY AT ALPHA-1D ADRENERGIC RECEPTOR” (RECORDATI INDUSTRIA CHIMICA E FARMACEUTICA S.p.a., priority 1999, dated 2001).

As usually defined, the pKi is −log10 of the Ki, conventionally taken in molar units.

Assay [1] has as its target T1, human recombinant α1a adrenoceptor (Homo sapiens, UniProt P35348).
T1 construct: expressed in transfected cells; host or cells: CHO cells (membranes)
T1 sequence (P35348 1-466): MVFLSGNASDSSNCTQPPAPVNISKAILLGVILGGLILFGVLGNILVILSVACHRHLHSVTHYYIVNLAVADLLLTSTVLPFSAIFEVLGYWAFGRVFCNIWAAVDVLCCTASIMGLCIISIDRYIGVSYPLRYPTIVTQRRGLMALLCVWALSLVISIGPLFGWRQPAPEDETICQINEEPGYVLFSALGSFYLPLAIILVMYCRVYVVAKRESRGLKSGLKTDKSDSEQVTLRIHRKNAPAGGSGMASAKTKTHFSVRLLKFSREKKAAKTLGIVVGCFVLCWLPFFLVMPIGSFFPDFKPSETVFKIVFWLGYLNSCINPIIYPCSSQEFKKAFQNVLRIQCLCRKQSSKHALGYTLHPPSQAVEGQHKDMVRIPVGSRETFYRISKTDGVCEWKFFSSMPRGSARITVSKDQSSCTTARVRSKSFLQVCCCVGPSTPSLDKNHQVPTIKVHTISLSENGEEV
Description: Radioligand binding ([3H]prazosin) on membranes of CHO cells expressing cloned α1a adrenoceptor. To be noted: read-out: Affinity (Ki) α1a. The protocol:
(§1) The determination of affinity for cloned subtypes of human α1 adrenergic receptors was performed in membranes from CHO cells (chinese hamster ovary cells) transfected by electroporation with DNA expressing the genes encoding each α1-adrenoceptor subtype, namely α1a, α1b and α1d.. Cloning and stable expression of the human α1-adrenoceptor gene were performed as previously described (Testa et al., Pharmacol. Comm. 6, 79-86 (1995)). CHO cell membranes were incubated in […] Tris pH 7.4 with 0.2 nM [^3H]prazosin, in a final volume of 1.02 ml for 30 minutes at 25°C, in the absence or presence of competing drugs (1 pM-10 µM). Non-specific binding was determined in the presence of 10 µM phentolamine. Incubation was stopped by addition of ice-cold Tris buffer and rapid filtration through 0.2% polyethyleneimine pretreated Schleicher & Schuell GF52 filters. […] The HeLa cells were grown as monolayers in Dulbecco's modified Eagle's medium (DMEM), supplemented with 10% foetal calf serum and gentamicin (100 µg/ml), 5% CO2, at 37°C. The cells were detached from the growth flask at 95% confluence by a cell scraper and were lysed in ice-cold 5 mM Tris and 5-mM EDTA buffer (pH 7.4). The homogenates were centrifuged at 40000 x g x 20 minutes and the membranes were re-suspended in a small volume of ice-cold 5 mM Tris and 5-mM EDTA buffer (pH 7.4) and immediately frozen and stored at -70°C until use. On the experiment day, the cell membranes were re-suspended in a buffer containing 50 mM Tris (pH 7.4), 2.5 mM MgCl2, 10 µM pargyline (Fargin et al., Nature 335, 358-360 (1988)). […] The incubation was stopped by addition of ice-cold Tris buffer and rapid filtration through 0.2%-polyethyleneimine-pretreated Schleicher & Schuell filters. The inhibition of specific binding of the radioligands by the drugs was analysed to estimate the IC50 value by using the non-linear curve-fitting programme Allfit (De Lean et al., Am. J. Physiol. 235, E97-E102 (1978)). The IC50 value was converted to an affinity constant (Ki) by the equation of Cheng & Prusoff (Biochem. Pharmacol. 22, 3099-3108 (1973)). Data were expressed as mean of Ki.

Assay [2] addresses T2, human recombinant α1d adrenoceptor (Homo sapiens, UniProt P25100).
T2 construct: expressed in transfected cells; host or cells: CHO cells (membranes)
T2 sequence (P25100 1-572): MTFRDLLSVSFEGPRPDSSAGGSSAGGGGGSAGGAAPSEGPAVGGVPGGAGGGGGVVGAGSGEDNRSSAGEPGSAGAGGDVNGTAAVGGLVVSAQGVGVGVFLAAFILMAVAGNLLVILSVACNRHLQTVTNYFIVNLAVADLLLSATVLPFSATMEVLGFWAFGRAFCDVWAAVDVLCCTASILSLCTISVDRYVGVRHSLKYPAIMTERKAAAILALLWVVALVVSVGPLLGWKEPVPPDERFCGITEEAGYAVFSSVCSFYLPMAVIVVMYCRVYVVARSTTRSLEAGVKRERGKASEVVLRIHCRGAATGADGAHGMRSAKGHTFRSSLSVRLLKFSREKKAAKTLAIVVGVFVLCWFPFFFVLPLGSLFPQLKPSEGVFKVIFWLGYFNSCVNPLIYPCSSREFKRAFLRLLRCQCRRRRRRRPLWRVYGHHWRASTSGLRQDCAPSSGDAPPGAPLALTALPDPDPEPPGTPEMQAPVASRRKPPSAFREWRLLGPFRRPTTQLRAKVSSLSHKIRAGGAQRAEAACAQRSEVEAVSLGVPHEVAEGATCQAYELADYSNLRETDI
Nature of the assay: Radioligand binding ([3H]prazosin) on membranes of CHO cells expressing cloned α1d adrenoceptor. To be noted: read-out: Affinity (Ki) α1d. The protocol:
as §1

The mark [3] stands for this setting: human cloned receptor, CHO cell membranes, 0.2 nM [3H]prazosin.

pKi: −log10 of the molar value. Where two headings read alike, the source gives them in different places.

For `O=C1CCCC(=O)N1CCN1CCN(c2cc(Cl)ccc2Cl)CC1` [Example 2, 1-{2-[4-(2,5-Dichlorophenyl)-1-piperazinyl]-ethyl}-piperidinyl-2,6-dione], the pKi in assay [1] (setting [3]) is 7.11; in assay [2] it was 8.49.

On to `Cc1ccc(F)c(N2CCN(CCN3C(=O)CC4(CCCC4)CC3=O)CC2)c1` [Example 4, 8-{2-[4-(2-Fluoro-5-methylphenyl)-1-piperazinyl]-ethyl}-8-azaspiro[4.5]decane-7,9-dione], for which the pKi in assay [1] (setting [3]) was under 6.00; in assay [2] (setting [3]), 8.62.

Take `Cc1ccc(C)c(N2CCN(CCN3C(=O)CC4(CCCC4)CC3=O)CC2)c1` [Example 5, 8-{2-[4-(2,5-Dimethylphenyl)-1-piperazinyl]-ethyl}-8-azaspiro[4.5]decane-7,9-dione]: the pKi in assay [1] (setting [3]) was 6.92; in assay [2] (setting [3]), 7.99.

With `O=C1CC2(CCCC2)CC(=O)N1CCN1CCN(c2cc(C(F)(F)F)ccc2F)CC1` [Example 6, 8-{2-[4-(2-Fluoro-5-trifluoromethylphenyl)-1-piperazinyl]-ethyl}-8-azaspiro[4.5]decane-7,9-dione], the figures for the pKi in assay [1] (setting [3]) and in assay [2] (setting [3]) were under 6.00 and 8.12, respectively.

Regarding `O=C1CC2(CCCC2)CC(=O)N1CCN1CCN(c2cc(Br)ccc2Br)CC1` [Example 7, 8-{2-[4-(2,5-Dibromophenyl)-1-piperazinyl]-ethyl}-8-azaspiro[4.5]decane-7,9-dione], the negative-log Ki (pKi) in assay [1] (setting [3]) is 6.94; in assay [2] (setting [3]) it was 8.43.

Turning to `N#Cc1ccc(Cl)cc1N1CCN(CCN2C(=O)CC3(CCCC3)CC2=O)CC1` [Example 8, 8-{2-[4-(5-Chloro-2-cyanophenyl)-1-piperazinyl]-ethyl}-8-azaspiro[4.5]decane-7,9-dione], the pKi is 6.30 in assay [1] (setting [3]) and 9.70 in assay [2] (setting [3]).

With `O=C1CC2(CCCC2)CC(=O)N1CCN1CCN(c2cc(F)ccc2Cl)CC1` [Example 9, 8-{2-[4-(2-Chloro-5-fluorophenyl)-1-piperazinyl]-ethyl}-8-azaspiro[4.5]decane-7,9-dione], the pKi in assay [1] (setting [3]) was 6.97; in assay [2] (setting [3]), 9.74.

For the molecule `O=C1CC2(CCCC2)CC(=O)N1CCN1CCN(c2cc(I)ccc2Cl)CC1` [Example 10, 8-{2-[4-(2-Chloro-5-iodophenyl)-1-piperazinyl]-ethyl}-8-azaspiro[4.5]decane-7,9-dione], the values for the pKi in assay [1] (setting [3]) and in assay [2] (setting [3]) were 6.32 and 7.82, respectively.

With `O=C1CC2(CCCCC2)CC(=O)N1CCN1CCN(c2cc(Cl)ccc2Cl)CC1` [Example 11, 3-{2-[4-(2,5-Dichlorophenyl)-1-piperazinyl]-ethyl}-3-azaspiro[5.5]undecane-2,4-dione], the values for the pKi in assay [1] (setting [3]) and in assay [2] (setting [3]) were 6.48 and 8.66, respectively.

Regarding `CCC1(C)CC(=O)N(CCN2CCN(c3cc(Cl)ccc3Cl)CC2)C(=O)C1` [Example 13, 1-{2-[4-(2,5-Dichlorophenyl)-1-piperazinyl]-ethyl}-4-ethyl-4-methylpiperidinyl-2,6-dione], the pKi in assay [1] (setting [3]) is 7.22; in assay [2] (setting [3]) it was 8.91.

For `O=C1CC2(CCCC2)C(=O)N1CCN1CCN(c2cc(Cl)ccc2Cl)CC1` [Example 14, 2-{2-[4-(2,5-Dichlorophenyl)-1-piperazinyl]-ethyl}-2-azaspiro[4.4]nonane-1,3-dione], the pKi in assay [1] (setting [3]) is 7.17; in assay [2] (setting [3]), 8.51.

For `O=C1CC2(CCC2)CC(=O)N1CCN1CCN(c2cc(Cl)ccc2Cl)CC1` [Example 15, 7-{2-[4-(2,5-Dichlorophenyl)-1-piperazinyl]-ethyl}-7-azaspiro[3.5]nonane-6,8-dione], the pKi is 6.92 in assay [1] (setting [3]) and 8.58 in assay [2] (setting [3]).

On to `CC(CN1CCN(c2cc(Cl)ccc2Cl)CC1)N1C(=O)CC2(CCCC2)CC1=O` (stereo not shown) [Example 16, 8-{2-[4-(2,5-Dichlorophenyl)-1-piperazinyl]-1-methylethyl}-8-azaspiro[4.5]decane-7,9-dione], for which the pKi in assay [1] (setting [3]) was 6.73; in assay [2] (setting [3]), 9.39.

On to `O=C1CC2(CCCC2)CC(=O)N1CCN1CCC(c2cc(Cl)ccc2Cl)CC1` [Example 17, 8-{2-[4-(2,5-Dichlorophenyl)-1-piperidinyl]-ethyl}-8-azaspiro[4.5]decane-7,9-dione], for which the pKi in assay [1] (setting [3]) is 6.93; in assay [2] (setting [3]), 8.82.

Take `CN(CCN1C(=O)CC2(CCCC2)CC1=O)CCN(C)c1cc(Cl)ccc1Cl` [Example 18, N-(2,5-Dichlorophenyl)-N'-{2-(7,9-dioxo-8-azaspiro[4.5]decane-8-yl)-ethyl}-N,N'-dimethyl-1,2-diaminoethane]: the pKi was 6.10 in assay [1] (setting [3]) and 7.79 in assay [2] (setting [3]).

On to `O=C1CC2(C=CN1CCN1CCN(c3cc(Cl)ccc3Cl)CC1)CCCC2` [Example 20, 8-{2-[4-(2,5-Dichlorophenyl)-1-piperazinyl]-ethyl}-8-azaspiro[4.5]dec-9,10-en-7-one], for which the pKi in assay [1] is 7.57; in assay [2], 8.84.

In the case of `O=C1CC2(CCCC2)CCN1CCN1CCN(c2cc(F)c(F)cc2F)CC1` [Example 24, 8-{2-[4-(2,4,5-Trifluorophenyl)-1-piperazinyl]-ethyl}-8-azaspiro[4.5]decane-7-one], the pKi in assay [1] (setting [3]) is 6.15; in assay [2] (setting [3]), 9.51.
